Assay results from patent US4772607A, “Dialkenyl derivatives of xanthine, pharmaceutical compositions and methods of use therefor” (Warner-Lambert Company, priority 1986, dated 1988).
Several values for one entry are separate records, joined by “and”; a condition that tells them apart may be missing. Equal values may be shown once. Where a name gives a salt, the structure may show the parent alone.

Experiments:
[1] = system: A1 and A2 adenosine receptor; details: disclosed by Hamilton et al, J. Med. Chem. (1985) 28: 1071; cited from earlier work
[2] = system: locomotor suppressant effects of A2 selective agonist CV-1808; assay: CNS activity: antagonism of locomotor suppressant effect of A2 agonist CV-1808 in mice; type: in vivo, mouse (male Swiss-Webster); details: for Locomotor activity, % suppression (B, A2 agonist alone): CV-1808 8 mg/kg IP alone
Experimental: (§1) The procedure employs naive animals obviating the need for extensive training and precluding possible cumulative drug effects.
(§2) Suspensions are ultrasonicated for 3 minutes.

[3] = target: T1, A1 adenosine receptor (Rattus norvegicus, UniProt P25099); assay: Adenosine Receptor Binding--A1 Receptor Affinity (RBA1), [3H]-CHA, rat whole brain membranes; set-up: species or system rat (male Long-Evans); details: [3H]-CHA 1.0 nM, 25° C., one hour, pH 7.7; read-out: RBA-1 IC50 (adenosine A1 receptor affinity)
T1 construct: Whole brain minus cerebellum and brainstem from male Long-Evans rats (150-200 g) is homogenized; from tissue; host or cells: rat whole brain minus cerebellum and brainstem, membranes
T1 sequence (P25099 1-326): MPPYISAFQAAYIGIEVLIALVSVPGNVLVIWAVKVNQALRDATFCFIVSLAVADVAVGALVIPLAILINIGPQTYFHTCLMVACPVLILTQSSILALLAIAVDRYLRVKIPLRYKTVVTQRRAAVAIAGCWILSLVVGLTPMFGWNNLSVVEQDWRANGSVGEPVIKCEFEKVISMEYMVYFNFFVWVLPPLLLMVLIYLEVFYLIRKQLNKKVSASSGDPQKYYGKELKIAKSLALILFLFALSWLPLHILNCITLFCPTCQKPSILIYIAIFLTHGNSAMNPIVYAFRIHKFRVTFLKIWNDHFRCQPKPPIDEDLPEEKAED
Experimental: Adenosine Receptor Binding--A1 Receptor Affinity (RBA1)
Whole brain minus cerebellum and brainstem from male Long-Evans rats (150-200 g) is homogenized in 30 volumes of ice-cold 0.05M Tris-HCl buffer pH 7.7 using a Brinkman Polytron PT-10, (setting number 6 for 20 seconds) and centrifuged for ten minutes at 20,000×g (Sorvall RC-2), 4° C. The supernatant is discarded, and the pellet is resuspended and centrifuged as before. The pellet is resuspended in 20 ml Tris-HCl buffer containing two International Units/ml of adenosine deaminase (Sigma type III from calf intestinal mucosa), incubated at 37° C. for 30 minutes, then subsequently at 0° C. for ten minutes. The homogenate is again centrifuged, and the final pellet is resuspended in ice-cold 0.05M Tris-HCl buffer pH 7.7 to a concentration of 20 mg/ml original wet tissue weight and used immediately.
Tissue homogenate (10 mg/ml) is incubated in 0.05M Tris-HCl buffer pH 7.7 containing 1.0 nM [^3 H]-N6-cyclohexyladenosine ([^3 H]-CHA) with or without test agents in triplicate for one hour at 25° C. Incubation volume was 2 ml. Unbound [^3 H]-CHA is separated by rapid filtration under reduced pressure through Whatman glass fiber (GF/B) filters. The filters are rinsed three times with 5 ml of ice-cold 0.05M Tris-HCl buffer pH 7.7. The radio-labeled ligand retained on the filter is measured by liquid scintillation spectrophotometry after shaking the filters for one hour or longer on a mechanical shaker in 10 ml of Beckman Ready-Solv HP scintillation cocktail.
The Scatchard plot is calculated by linear regression of the line obtained by plotting the amount of radioligand bound (pmoles/gram of tissue) versus [formula] Since the amount of radioligand bound is a small fraction of the total amount added, free radioligand is defined as the concentration of (nM) of radioligand added to the incubation mixture. The Hill coefficient is calculated by linear regression of the line obtained by plotting the log of the bound radioligand vs the log of the [formula] The maximal number of binding sites (Bmax) is calculated from the Scatchard plot.

[4] = CNS activity: locomotor activity of antagonist alone in mice (reference control); type: in vivo, mouse (male Swiss-Webster); details: antagonist 10 mg/kg IP alone; CV-1808 experiment
[5] = target: T2, A2 adenosine receptor (Rattus norvegicus, UniProt P30543); assay: Adenosine Receptor Binding--A2 Receptor Affinity (RBA2), [3H]NECA, rat striatal membranes; set-up: species or system rat (Sprague-Dawley); details: [3H]NECA 4 nM, 50 nM N6-cyclopentyladenosine, 25° C., 60 minutes; read-out: RBA-2 IC50 (adenosine A2 receptor affinity)
T2 construct: Brains are thawed and then kept on ice while the striata are dissected out; tissue Pel-Freez (Rogers, Ark.); host or cells: rat striatum, membranes
Experimental: Adenosine Receptor Binding--A2 Receptor Affinity (RBA2)
The membrane suspension (5 mg/0.79 ml) contained sufficient MgCl2 and adenosine deaminase to give 10 mM and 0.1 units/ml, respectively, final concentration in the incubation.
[formula] where Y is cpm bound
T is cpm total binding without drug
S is cpm specific binding without drug
D is the concentration of drug and
K is the IC50 of the drug

[6] = system: locomotor suppressant effects of A1 selective adenosine agonist CPA; assay: CNS activity: antagonism of locomotor suppressant effect of A1 agonist CPA in mice; type: in vivo, mouse (male Swiss-Webster)
Experimental: as §1, §2

T2 sequence (P30543 whole entry): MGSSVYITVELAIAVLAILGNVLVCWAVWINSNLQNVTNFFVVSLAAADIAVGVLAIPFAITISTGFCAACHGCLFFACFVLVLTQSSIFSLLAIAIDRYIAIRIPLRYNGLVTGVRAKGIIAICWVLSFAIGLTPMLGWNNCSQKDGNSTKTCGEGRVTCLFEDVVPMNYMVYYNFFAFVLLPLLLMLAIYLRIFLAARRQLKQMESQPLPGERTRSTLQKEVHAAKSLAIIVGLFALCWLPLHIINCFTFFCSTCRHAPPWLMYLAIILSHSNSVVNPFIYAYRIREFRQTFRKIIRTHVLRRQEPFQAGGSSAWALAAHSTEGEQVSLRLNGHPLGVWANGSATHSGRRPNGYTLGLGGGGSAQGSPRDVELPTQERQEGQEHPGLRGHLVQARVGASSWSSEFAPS

Q: Which “A1 and A2 adenosine receptor binding activity (in words)” value [1] does the source give for `C=CCn1c(=O)c2[nH]c(-c3ccc(S(=O)(=O)NCCCN(C)C)cc3)nc2n(CC=C)c1=O` [N-[3-(dimethylamino)propyl]-4-(2,3,6,7-tetrahydro-2,6-dioxo-1,3-2-propenyl-1H-purine-8-yl)benzensulfonamide] here?
A: Its value is “having A1 and A2 adenosine receptor binding activity”.

Q: Which “Locomotor activity, % suppression (B, A2 agonist alone)” value ([2]; 8 mg/kg) does the source give for `Nc1nc(Nc2ccccc2)nc2c1ncn2[C@@H]1O[C@H](CO)[C@@H](O)[C@H]1O` [CV-1808, 2-anilinoadenosine, reference compound] here?
A: Its value is 83%.

Q: And the “Locomotor activity, % suppression (B, A2 agonist alone)” value ([2]; listed as CV-1810)?
A: The value was 62%.

Q: For “8-(4-sulfonylphenyl)-3,9-dihydro-1,3-bis(2-propenyl)-1H-purine-2,6-dione”, which “A1 and A2 adenosine receptor binding activity (in words)” value [1] is on record?
A: The value was “having A1 and A2 adenosine receptor binding activity”.

Q: For `C=CCn1c(=O)c2[nH]c(C3CCCC3)nc2n(CC=C)c1=O` [Example 4, 8-Cyclopentyl-3,7-dihydro-1,3-bis(2-propenyl)-1H-purine-2,6-dione], which “% Reversal (B - C) ÷ B × 100, against CV-1808 (A2)” value ([2]; antagonist 10 mg/kg, CV-1808 8 mg/kg, IP) is on record?
A: The value was 8%.

Q: What about the “Locomotor activity, % suppression (C, agonist + antagonist)” value ([2]; antagonist + CV-1808 8 mg/kg, IP, antagonist 10 mg/kg) of the same molecule?
A: The value was 57%.

Q: And the “Reversal Rating A2 (against CV-1808)” value ([2]; paired t-test of B and C)?
A: Its value is “N (if the data are insignificant (p>0.05) then the dose effect is given a rating of "N")”.

Q: And the IC50 [3]?
A: The IC50 was 9 nM.

Q: And the “Locomotor activity, % suppression (A, antagonist alone)” value [4]?
A: Its value is 18%.

Q: What about the IC50 [5] of the same molecule?
A: Its IC50 is 3500 nM.

Q: What about the “Locomotor activity, % suppression (C, agonist + antagonist)” value ([6]; antagonist 10 mg/kg + CPA 2 mg/kg, IP) of the same molecule?
A: Its value is 16%.

Q: And the “% Reversal (B - C) ÷ B × 100, against CPA (A1)” value ([6]; antagonist 10 mg/kg, CPA 2 mg/kg, IP)?
A: Its value is 82%.

Q: What about the “Reversal Rating A1 (against CPA)” value ([6]; paired t-test of B and C) of the same molecule?
A: Its value is “A (if the values are significantly different (p<0.05) from each other then the dose effect is given a reversal rating of "A")”.

Q: With `C=CCn1c(=O)c2[nH]c(-c3ccc(S(=O)(=O)NCCCN(C)C)cc3)nc2n(CC=C)c1=O` [Example 3, N-[3-(dimethylamino)propyl]-4-(2,3,6,7-tetrahydro-2,6-dioxo-1,3-di-2-propenyl-1H-purine-8-yl)benzenesulfonamide monohydrochloride] as the molecule, how does the IC50 [3] read?
A: Its IC50 is 260 nM.

Q: With `OC[C@H]1O[C@@H](n2cnc3c(NC4CCCC4)ncnc32)[C@H](O)[C@@H]1O` [CPA, N^6 -cyclopentyladenosine, reference compound] as the molecule, how does the “Locomotor activity, % suppression (B, A1 agonist alone)” value ([6]; CPA 2 mg/kg IP alone) read?
A: The value was 90% and 94%.

Q: Which results are given for `C=CCn1c(=O)c2nc(-c3ccc(Cl)cc3N)[nH]c2n(CC=C)c1=O` [Example 1, 8-(2-Amino-4-chlorophenyl)-3,9-dihydro-1,3-bis(2-propenyl)-1H-purine-2,6-dione]?
A: IC50 [3]: 130 nM; A1 and A2 adenosine receptor binding activity (in words) [1]: having A1 and A2 adenosine receptor binding activity

Q: With `C=CCn1c(=O)c2nc(C)[nH]c2n(CC=C)c1=O` [8-methyl-3,9-dihydro-1,3-bis(2-propenyl)-1H-purine-2,6-dione] as the molecule, how does the “A1 and A2 adenosine receptor binding activity (in words)” value [1] read?
A: Its value is “having A1 and A2 adenosine receptor binding activity”.

Q: Which IC50 [3] does the source give for `C=CCn1c(=O)c2nc(-c3ccc(S(=O)(=O)O)cc3)[nH]c2n(CC=C)c1=O` [Example 2, 4-(2,3,6,7-Tetrahydro-2,6-dioxo-1,3-di-2-propenyl-1H-purine-8-yl)benzenesulfonic acid] here?
A: Its IC50 is 6960 nM.
